Laboratory results published in US12195479B2, “Five- and six-membered compound, and preparation method therefor and pharmaceutical composition and use thereof” (HANGZHOU POLYMED BIOPHARMACEUTICALS, INC., priority 2021, dated 2025).

Tests used:
FLT3 kinase = target: T1, FLT3 kinase (Homo sapiens, UniProt P36888); test: Kinase inhibition, fluorescence microfluidic mobility shift assay (FLT3); type: biochemical; details: substrate peptide FAM-P2 3 μM, ATP 97 μM; one hour at 28° C.; assayed in duplicate
T1 sequence (P36888 564-993): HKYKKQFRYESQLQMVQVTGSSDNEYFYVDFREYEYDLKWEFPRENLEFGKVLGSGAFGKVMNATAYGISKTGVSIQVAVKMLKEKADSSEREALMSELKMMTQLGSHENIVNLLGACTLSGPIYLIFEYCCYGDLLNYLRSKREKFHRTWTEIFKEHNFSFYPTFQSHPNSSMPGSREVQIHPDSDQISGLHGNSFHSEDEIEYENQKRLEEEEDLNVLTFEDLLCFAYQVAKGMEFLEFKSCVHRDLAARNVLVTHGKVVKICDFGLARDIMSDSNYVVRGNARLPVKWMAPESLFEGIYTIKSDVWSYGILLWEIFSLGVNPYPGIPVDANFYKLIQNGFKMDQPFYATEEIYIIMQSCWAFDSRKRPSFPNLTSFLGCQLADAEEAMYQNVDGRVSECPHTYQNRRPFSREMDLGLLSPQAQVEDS
Procedure: Based on the experimental method of fluorescence microfluidic mobility shift assay, the IC50 value of the compound for competitive binding of ATP to kinases IRAK4 and FLT3 was determined. The initial detection concentration of the compound was 10 μM, which was diluted to 0.38 nM with a 4-fold gradient and assayed in duplicate. In this case, commercially available staurosporine was the standard control for the assay.
Information on reagents and consumables is as follows: • IRAK4 kinase (Carna, Cat. No. 09-145, Lot. No. 14CBS-0020 H) • FLT3 kinase (Carna, Cat. No. 08-154, Lot. No. 07CBS-2350) • Substrate peptide FAM-P2 (GL Biochem, Cat. No. 112394, Lot. No. P131014-XP112394) • Substrate peptide FAM-P8 (GL Biochem, Cat. No. 112396, Lot. No. P170731-SY112396) • ATP (adenosine triphosphate, Sigma, Cat. No. A7699-1G, CAS No. 987-65-5) • DMSO (dimethyl sulfoxide, Sigma, Cat. No. D2650) • EDTA (ethylenediaminetetraacetic acid, Sigma, Cat. No. E5134, CAS No. 60-00-4) • Staurosporine (Selleckchem, Cat. No. 51421) • HEPES (4-(2-Hydroxyethyl)-1-piperazineethanesulfonic acid, Gibco, Cat. No. 15630-080) • Brij-35 solution (Polyoxyethylene lauryl ether, Sigma, Cat. No. B41840-100 mL) • DTT (dithiothreitol, Sigma, Cat. No. D0632-20G) • 0.2% Coating Reagent #3 (0.2% coating reagent, Perkin Elmer, Cat. No. 760050) • 96-well plate (Corning, Cat. No. 3365) • 384-well plate (Corning, Cat. No. 3573) Experimental operation method: • 1) FLT3 and IRAK4 kinases were dissolved in the kinase buffer (50 mM HEPES pH 7.5, 10 mM MgCl2, 2 mM DTT, and 0.01% Brij-35) at final concentrations of 0.9 nM, 30 nM, and 6 nM, respectively. • 2) The substrate peptide FAM-P2 and the substrate peptide FAM-P8, together with ATP, were dissolved in the above kinase buffer, respectively, where the final concentrations of the substrate peptide FAM-P2 and ATP for the determination of FLT3 were 3 μM and 97 μM, respectively; and the final concentrations of the substrate peptide FAM-P8 and ATP for the determination of IRAK4 were 3 μM and 10 μM, respectively. • 3) Compound dilution: The compound was first diluted to 50 μM, and then diluted downward with DMSO in a 4-fold gradient. In this case, the solution without compound and kinase served as the blank control, corresponding to the “minimum value” shown below; the solution without compound but containing kinase, adenosine triphosphate, DMSO, and the buffer served as the positive control, corresponding to the “maximum value” shown below. • 4) Kinase reaction and termination: 10 μL of the kinase buffer was added to a 384-well plate containing 5 μL of the compound to be tested, and the mixture was incubated for 10 minutes at room temperature; another 10 μL, of buffer containing the substrate peptide and adenosine triphosphate was added to the 384-well plate, and after incubation for one hour at 28° C., 25 μL, of termination solution (100 mM HEPES pH 7.5, 50 mM EDTA, 0.2% Coating Reagent #3, and 0.015% Brij-35) was added to each well for reaction termination. • 5) Data reading: CaliperEZ Reader II instrument was used to read the conversion rate data. Setting conditions: downstream voltage as −500 V, upstream voltage as −2250 V, base pressure as −0.5 PSI, and screening pressure as −1.2 PSI. • 6) Data calculation: the conversion rate data was copied from CaliperEZ Reader II, and the conversion rate was converted into inhibition rate data.

IRAK4 kinase = target: T2, IRAK4 kinase (Homo sapiens, UniProt Q9NWZ3); test: Kinase inhibition, fluorescence microfluidic mobility shift assay (IRAK4); type: biochemical; details: substrate peptide FAM-P8 3 μM, ATP 10 μM; one hour at 28° C.; assayed in duplicate
T2 sequence (Q9NWZ3 1-460): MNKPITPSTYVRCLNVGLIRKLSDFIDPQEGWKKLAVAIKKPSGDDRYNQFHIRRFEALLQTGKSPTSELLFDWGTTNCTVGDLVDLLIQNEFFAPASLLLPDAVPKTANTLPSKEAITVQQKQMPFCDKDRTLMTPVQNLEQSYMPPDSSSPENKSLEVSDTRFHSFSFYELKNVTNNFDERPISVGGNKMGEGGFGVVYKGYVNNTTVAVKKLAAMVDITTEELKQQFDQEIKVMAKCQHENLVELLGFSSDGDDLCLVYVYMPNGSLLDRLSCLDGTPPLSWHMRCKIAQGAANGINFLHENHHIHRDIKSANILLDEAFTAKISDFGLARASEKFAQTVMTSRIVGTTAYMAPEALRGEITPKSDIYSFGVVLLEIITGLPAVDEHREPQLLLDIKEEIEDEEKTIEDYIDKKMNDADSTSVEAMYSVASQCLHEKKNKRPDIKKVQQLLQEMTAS

MV4-11 cells = test: Cytotoxicity against MV4-11 cells (CellTiter-Glo); type: cell-based; details: Homo sapiens, incubated for 72 hours, CellTiter-Glo chemiluminescence
Procedure: Determination of the IC50 Value of the Compound's Cytotoxicity Against MV4-11 Cells
MV-4-11 cells were cultured with IMDM complete medium (IMDM+10% fetal bovine serum+1% Penicillin-Streptomycin, a mixture of penicillin-streptomycin). • 2. MV-4-11 cells in good condition were collected and washed twice with DPBS ([…] phosphate buffered saline solution). • 3. MV-4-11 cells were resuspended with IMDM complete medium, the cell density was adjusted to 1.11×10^6 cells/mL, and the MV-4-11 cells were added to 96-well plates at 90 μL per well. • 4. A compound solution with 10-fold concentration was prepared with IMDM complete medium, 10 μL of the compound solution with 10-fold concentration was added to the cells in the 96-well plate, mixed well, and then the 96-well plate was placed in a 5% CO2 incubator at 37° C. and incubated for 72 hours. • 5. After the incubation, the 96-well plate was taken out and equilibrated for 30 minutes at room temperature. Then 100 μL of CellTiter Glo reagent was added to each well and mixed on a horizontal shaker for 2 minutes. • 6. The 96-well plate was removed, equilibrated at room temperature for 10 minutes, and the chemiluminescence value was detected on a microplate reader.

Compound | IC50 (FLT3 kinase) [nM] | IC50 (IRAK4 kinase) [nM] | IC50 (MV4-11 cells) [nM]
Cc1cc(-c2nc(C(=O)Nc3cc4cn(CCC5CCNC5=O)nc4cc3C(C)(C)O)co2)ccn1 (stereo not shown) [II-1] | 0.34 | 11 | 19.4
COc1cc2nn(CCC3CCNC3=O)cc2cc1NC(=O)c1coc(-c2ccnc(C)c2)n1 (stereo not shown) [II-2] | 0.52 | 8.4 | 14.8
COc1cn2nc(C3CCNCC3)cc2cc1NC(=O)c1coc(-c2ccnc(C)c2)n1 [II-3F] | 2.3 | 6 | 15
COc1cc2nn(CCC3CCNC3=O)cc2cc1NC(=O)c1coc(Br)n1 (stereo not shown) [II-4] | 12 | 72 | –
COc1cc2nn(C3CCNCC3)cc2cc1NC(=O)c1nc(-c2ccnc(C)c2)c[nH]1 [II-5C] | 0.19 | 3.5 | 0.78
COc1cc2nn(C3CCNCC3)cc2cc1NC(=O)c1coc(N2CCN(C(C)=O)CC2)n1 [II-6] | – | 178 | –
COc1cc2nn(C3CCNCC3)cc2cc1NC(=O)c1coc(N2CCS(=O)(=O)CC2)n1 [II-7C] | 100 | 94 | –
COc1cc2nn(CCC3CCNC3=O)cc2cc1NC(=O)c1coc(-c2ccnc(C(F)(F)F)c2)n1 (stereo not shown) [II-8] | 9.5 | 25 | –
COc1cc2nn(C3CCNCC3)cc2cc1NC(=O)c1coc(-c2ccccc2)n1 [II-9C] | – | 9.4 | –
COc1cc2nn(C3CCNCC3)cc2cc1NC(=O)c1coc(-c2ccncc2)n1 [II-10C] | 2.9 | 25 | 4.3
COc1cc2nn(C3CCNCC3)cc2cc1NC(=O)c1ccn(-c2ccnc(C)c2)n1 [II-11C] | 0.75 | 6.9 | 4.6
COc1cc2nn(CCS(C)(=N)=O)cc2cc1NC(=O)c1coc(-c2ccnc(C)c2)n1 (stereo not shown) [II-12] | 0.44 | 10 | 17.9
COc1cc2nn(C3CCNCC3)cc2cc1NC(=O)c1coc(-c2ccnc(C(F)(F)F)c2)n1 [II-13C] | 0.44 | 6.4 | 14.6
Cc1cc(-c2nc(C(=O)Nc3cc4cn(C5CCNCC5)nc4cc3OC(C)C)co2)ccn1 [II-14C] | 0.72 | 7.5 | 0.25
COc1cc2nc(C3CCNCC3)cn2cc1NC(=O)c1coc(-c2ccnc(C)c2)n1 [II-15C] | 1.3 | 6.5 | 8.2
Cc1cc(-c2nc(C(=O)Nc3cc4cc(CCC(C)(C)O)nn4cc3C(C)(C)O)co2)ccn1 [II-28] | 0.79 | 16 | 3.1
Cc1cc(-c2nc(C(=O)Nc3cc4cn(CCC(C)(C)O)nc4cc3C(C)(C)O)co2)ccn1 [II-49] | 0.32 | 5.1 | 5
Cc1cc(-c2nc(C(=O)Nc3cc4cn(CCN5CC6(COC6)C5)nc4cc3C(C)(C)O)co2)ccn1 [II-51] | 0.32 | 6.5 | 16
Cc1cc(-c2nc(C(=O)Nc3cc4cn(C5CCC(O)CC5)nc4cc3C(C)(C)O)co2)ccn1 (stereo not shown) [II-54] | 0.78 | 23 | 35.3
Cc1cc(-c2nc(C(=O)Nc3cc4cn(C5CCOCC5)nc4cc3C(C)(C)O)co2)ccn1 [II-56] | 0.24 | 3.4 | 4.6
Cc1cc(-c2nc(C(=O)Nc3cc4cn(C5CCS(=O)(=O)CC5)nc4cc3C(C)(C)O)co2)ccn1 [II-57] | 0.3 | 6.5 | 13
Cc1cc(-c2nc(C(=O)Nc3cc4cn(C5CCN(CC(F)(F)F)CC5)nc4cc3C(C)(C)O)co2)ccn1 [II-59] | 0.63 | 4.9 | 12.5
Cc1cc(-c2nc(C(=O)Nc3cc4cn(CCC5CCNC5=O)nc4cc3OC3COC3)co2)ccn1 (stereo not shown) [II-64] | – | 4.5 | 1.3
